Test results taken from patent US20230364121A1 (priority 2020, published 2023).
Like-named read-outs stand apart in the source and are kept apart here.

Columns and labels:
[1] = target: T1, SARS-Cov-1 nsp12:7L8:8 polymerase complex (Severe acute respiratory syndrome coronavirus, UniProt P0C6X7); test: biochemical; type: biochemical
[2] = target: T1, SARS-Cov-1 nsp12:7L8:8 polymerase complex; type: biochemical
[3] = Bronchoalveolar lavage and plasma PK / safety study in healthy participants; type: in vivo, human
Description: Two cohorts of 8 healthy participants have been enrolled to receive AT-527 at 275 or 550 mg BID orally for 2.5 days. At 4 and 12 h following the last dose, each participant (4/timepoint/cohort) underwent a single bronchoalveolar lavage (BAL) via a standard bronchoscope. Intensive plasma PK sampling was also performed after the last dose. BAL and plasma samples were assayed for AT-273. AT-273 levels in lung epithelial lining fluid (ELF) were calculated by correcting for urea levels in the BAL and the corresponding plasma samples. Safety assessments included adverse events (AEs), vital signs, electrocardiograms (ECGs), and standard laboratory tests.

[4] = target: nsp12 NiRAN active-site (Severe acute respiratory syndrome coronavirus, UniProt P0C6X7); test: biochemical; type: biochemical, SARS-CoV
[5] = target: nsp12:7:8 RTC (Severe acute respiratory syndrome coronavirus, UniProt P0C6X7); type: biochemical, SARS-CoV
[6] = system: SARS-CoV and SARS-CoV-2 RTCs; type: biochemical
[7] = system: human coronavirus alpha-229E; test: microbe, parasite or virus in culture; type: cell-based, HCoV-229E; settings: unidentified human coronavirus
[8] = system: Huh7 cells; settings: human
[9] = Cytotoxicity in mock infected BHK cells (MTT); type: cell-based, hamster; settings: hamster, mock infected BHK cells; Table 2A; MTT, 3 days
Description: (§1) To determine the cytotoxicity, cells were seeded at an initial density of 1×10^6 cells/mL in 96 well plates containing Minimum Essential Medium with Earles's salts (MEM-E), L-glutamine, 1 mM sodium pyruvate and 25 mg/L kanamycin, supplemented with 10% fetal bovine serum. Cell cultures were then incubated at 37° C. in a humidified 5% CO2 atmosphere in the absence or presence of serial dilutions of test compounds. Cell viability was determined by the MTT method.
(§2) Uninfected cells in the presence of serially diluted compound were used to assess the cytotoxicity of compounds.

[10] = system: HCoV; test: microbe, parasite or virus in culture; type: cell-based, human coronavirus
[11] = system: mock infected BHK cells; test: Cytotoxicity in mock infected BHK cells (MTT); type: cell-based, hamster; settings: Table 2B; MTT, 3 days
Description: as §1, §2

[12] = AT-527 550 mg BID orally 2.5 days, 4 and 12 h after last dose
[13] = unidentified human coronavirus, BHK-21, 72 h

C[C@@]1(F)[C@H](O)[C@@H](COP(=O)(O)OP(=O)(O)OP(=O)(O)O)O[C@H]1n1ccc(=O)[nH]c1=O [2′C-Me 2′F-UTP, reference compound]
EC50 [1]: 20 to 40 µM
incorporation efficacy compared to misincorporation at a U position [2]: around 40%

C[C@@]1(F)[C@H](O)[C@@H](CO)O[C@H]1n1cnc2c(=O)[nH]c(N)nc21 [AT-273]
Mean AT-273 level in lung ELF [3, 12]: ≥ 0.5 µM
Mean AT-273 level in plasma [3, 12]: ≥ 0.5 µM
correlation of ELF and plasma levels (r) ([3]; P<0.001): 0.86

C[C@@]1(F)[C@H](O)[C@@H](COP(=O)(O)OP(=O)(O)OP(=O)(O)O)O[C@H]1n1ccc(=O)[nH]c1=O [STP, 5′-triphosphate 2′-fluoro-2′-C-methyl uridine]
fold less efficient at blocking nsp8 labeling / UMPylation than AT-9010 [4]: ~5 fold
IC50 ([4]; IC50 of nsp8 labeling against GTP (FIG. 13C)): 5 ± 0.8 µM
IC50 ([4]; IC50 of nsp8 labeling against UTP (FIG. 13C)): 8.2 ± 1.4 µM
IC50 ([4]; IC50 of nsp8 labeling, competition with UTP (FIG. 13A)): 4.6 ± 0.2 µM
discrimination as substrate of the SARS-CoV RDRP [2]: > 250 fold
inhibition of RNA synthesis from poly(C) template [5]: virtually inactive
competition with UTP ([6]; 5-fold higher concentrations than UTP): not competitive
competition with UTP ([6]; STP: UTP 20:1): not competitive

Cn1c[n+]([C@@H]2O[C@H](COP(=O)([O-])OP(=O)(O)OP(=O)(O)O)[C@@H](O)[C@H]2O)c2nc(N)[nH]c(=O)c21 [^m7GTP]
inhibition of nsp8 labeling / transfer of UTP to nsp8 [4]: poorly inhibit

CCN(CC)CCCC(C)Nc1ccnc2cc(Cl)ccc12 (stereo not shown) [chloroquine, reference compound]
EC90 ([7]; Huh-7, 72 h, read-out: Virus Yield Reduction Assay EC90): < 0.05 µM
EC50 ([7]; Huh-7, 120 h, read-out: Neutral Red Assay EC50): 8.1 µM
CC50 [8]: 21 µM

CNc1nc(N)nc2c1ncn2[C@@H]1O[C@H](CO[P@@](=O)(N[C@@H](C)C(=O)OC(C)C)Oc2ccccc2)[C@@H](O)[C@@]1(C)F [drawing 232]
CC50 at 3 days [9]: > 100 µM
EC50 [10, 13]: 1.6 µM

CNc1nc(N)nc2c1ncn2[C@@H]1O[C@H](CO[P@](=O)(N[C@@H](C)C(=O)OC(C)C)Oc2ccccc2)[C@@H](O)[C@@]1(C)F [drawing 233]
CC50 at 3 days [9]: > 100 µM
EC50 [10, 13]: 2.5 µM

CC(C)OC(=O)[C@H](C)N[P@](=O)(OCC1O[C@@H](n2ccc(=O)[nH]c2=O)[C@](C)(F)[C@@H]1O)Oc1ccccc1 (stereo partly shown) [drawing 234]
CC50 at 3 days [9]: > 100 µM
EC50 [10, 13]: > 100 µM

CC(C)(CO)C(=O)SCCOP(=O)(NCc1ccccc1)OC[C@H]1O[C@@H](n2cnc3c(=O)[nH]c(N)nc32)[C@](C)(O)[C@@H]1O (stereo partly shown) [drawing 236]
CC50 at 3 days [9]: 65 µM
EC50 [10, 13]: 1.7 µM

CCC(CC)COC(=O)[C@H](C)N[P@](=O)(OC[C@H]1O[C@@](C#N)(c2ccc3c(N)ncnn23)[C@H](O)[C@@H]1O)Oc1ccccc1 [drawing 237]
CC50 at 3 days [9]: > 100 µM
EC50 [10, 13]: 7.2 µM

CC(C)[C@H](N)C(=O)O[C@@H]1[C@@H](CO)O[C@@H](n2ccc(N)nc2=O)[C@]1(C)O [drawing 238]
CC50 at 3 days [9]: > 100 µM
EC50 [10, 13]: > 100 µM

CNc1nc(N)nc2c1ncn2[C@@H]1O[C@H](CO[P@@](=O)(N[C@@H](C)C(=O)OC(C)C)Oc2ccccc2)[C@@H](O)[C@@]1(C)F [drawing 239]
CC50 [11]: > 100 µM
EC50 [10]: 2 µM

CNc1nc(N)nc2c1ncn2[C@@H]1O[C@H](CO[P@](=O)(N[C@@H](C)C(=O)OC(C)C)Oc2ccccc2)[C@@H](O)[C@@]1(C)F [drawing 240]
CC50 [11]: > 100 µM
EC50 [10]: 2.9 µM

CC(C)OC(=O)[C@H](C)N[P@](=O)(OCC1O[C@@H](n2ccc(=O)[nH]c2=O)[C@](C)(F)[C@@H]1O)Oc1ccccc1 (stereo partly shown) [drawing 241]
CC50 [11]: > 100 µM
EC50 [10]: > 100 µM

CC(C)(CO)C(=O)SCCOP(=O)(NCc1ccccc1)OC[C@H]1O[C@@H](n2cnc3c(=O)[nH]c(N)nc32)[C@](C)(O)[C@@H]1O (stereo partly shown) [drawing 243]
CC50 [11]: 65 µM
EC50 [10]: 1.9 µM
